How the values were obtained:
spleen cells [1] = experiment: Plaque Forming Cell Assay (inhibition rate of the antibody production); assay type: cell-based, Balb/c strain mice; conditions: Mus musculus; Concentration 10^-6 M; read-out: Inhibition rate (antibody production, PFC)
Procedure: Plaque Forming Cell Assay
The plaque forming cell assay was carried out by the following manner with reference to the method of Jerne et al. [Science, 140, 405 (1963)] and the method of Yamamoto et al. [Drugs Experimental Clinical Research, III(1), 5 (1982)].
Male Balb/c strain mice (7-week-old) (Charles River Co.) were sensitized with 1×10^8 sheep erythrocytes (product of Biotest Research Institute) administered via the caudal vein, and the spleens were extirpated 6 or 7 days after the sensitization. The extirpated spleens were immersed in Hanks' solution (Nissui Seiyaku) to make a cell suspension, which was then filtered, followed by centrifugal separation at 1200 rpm for 5 minutes. After centrifugal separation, the supernatant was discarded and the precipitate was treated with Tris.NH4 Cl solution to remove the erythrocytes, and then washed three times with Hanks' solution. After discarding the supernatant, the cells were suspended in an RPMI-1640 medium (Nissui Seiyaku) containing 10% bovine fetal serum (Gibco Co.), 50 μg/ml of streptomycin (Meiji Seika), […] of penicillin (Meiji Seika) and 2-mercaptoethanol (5×10^-5 M). In each well of a micro culture plate (NUNK Co., Ltd., 24 wells) were put 2 ml of the mixture of the cell suspension containing 1×10^7 of spleen cells, 5×10^6 sheep erythrocites and a test compound solution (10^-6 M) obtained by diluting the test compound dissolved in dimethylsulfoxide (10^-2 M) with the above mentioned RPMI-1640, and the cells were cultured at 37° C. for 5 days.
After the completion of the culturing, the cells were subjected to centrifugal separation at 2000 rpm for 5 minutes, and the resulting supernatant was removed. The precipitate was suspended in 1 ml of Hanks' solution, again subjected to centrifugal separation, suspended in 1 ml of Hanks' solution, and then, 50 μl of the suspension and 50 μl of sheep erythrocytes were added to 400 μl of 0.25% agarose/Hanks' solution heated to 50° C. in advance, and the mixture was scattered on a glass slide, placed on a plaque assay plate, and together with guinea pig complement (Cedarlene Institute) diluted 40-fold with a phosphate buffer solution, incubated at 37° C. for 1 to 2 hours. The number of the appearing direct plaque cells (direct PFC count) in suspension was counted.
The inhibition rate of the antibody production of the test compound was determined by the following equation. [formula]
The compound used for comparison was 5,6-dihydro-9-fluoro-3-phenylbenz[c]acridine-7-carboxylic acid [Japanese Published Unexamined Patent Application No. 233661/90, hereinafter referred to as Compound (A)] represented by formula (A). [drawing 62]
PFC count in Control means PFC count in the absence of the test compound (dimethylsulfoxide alone).

spleen cells [2] = experiment: as above; assay type: cell-based, Balb/c strain mice; conditions: Mus musculus, read-out: Inhibition rate (antibody production, PFC); for inhibition at 10 µM: Concentration 10^-5 M; for inhibition at 0.1 µM: Concentration 10^-7 M; for inhibition at 0.01 µM: Concentration 10^-8 M
dd mice = experiment: Acute toxicity; assay type: in vivo; conditions: mortality after 7 days
Procedure: The test compound was administered to dd mice having a weight of 20 to 25 g per os (p.o.) and intraperitoneally (i.p.). MLD (minimum lethal dose) was evaluated by measuring the mortality after 7 days from the day of administration.

Row | Compound | inhibition at 1 µM (spleen cells [1]) [%] | inhibition at 10 µM (spleen cells [2]) [%] | inhibition at 0.1 µM (spleen cells [2]) [%] | MLD (minimum lethal dose) (dd mice; i.p.) | MLD (minimum lethal dose) (dd mice; p.o.) | inhibition at 0.01 µM (spleen cells [2]) [%]
1 | O=C(O)c1c2c(nc3ccc(F)cc13)-c1ccc(-c3ccc(F)cc3)cc1CC2 [Compound 1, 5,6-Dihydro-9-fluoro-3-(4-fluorophenyl)benz[c]acridine-7-carboxylic acid] | 93.5 | 98.1 | 69.2 |  |  | 
2 | O=C(O)c1c2c(nc3ccc(F)cc13)-c1ccc(-c3ccc(F)cc3F)cc1CC2 [Compound 2, 3-(2,4-Difluorophenyl)-5,6-dihydro-9-fluorobenz [c]acridine-7-carboxylic acid] | 96.3 | 98 | 86.7 |  |  | 
3 | O=C(O)c1c2c(nc3ccc(F)cc13)-c1ccc(-c3c(F)cccc3F)cc1CC2 [Compound 3, 3-(2,6-Difluorophenyl)-5,6-dihydro-9-fluorobenz[c]acridine-7-carboxylic acid] | 99.4 | 99.7 | 68.9 | > 100 | > 300 | 
4 | O=C(O)c1c2c(nc3ccc(F)cc13)-c1ccc(-c3cccs3)cc1CC2 [Compound 4, 5,6-Dihydro-9-fluoro-3-(2-thienyl)benz[c]acridine-7-carboxylic acid] | 99.2 | 99.8 | 88.4 | > 100 | > 300 | 
5 | O=C(O)c1c2c(nc3ccc(F)cc13)-c1cc(F)c(-c3ccccc3F)cc1CCC2 [Compound 13, 2,10-Difluoro-6,7-dihydro-3-(2-fluorophenyl)-5H-benzo[6,7]cyclohepta[1,2-b]quinoline-8-carboxylic acid] | 95.7 | 95.2 | 82.4 |  |  | 
6 | O=C(O)c1c2c(nc3ccc(F)cc13)-c1cc(F)c(-c3ccccc3)cc1CC2 [Compound 16, 2,9-Difluoro-5,6-dihydro-3-phenylbenz[c]acridine-7-carboxylic acid] | 94.1 |  | 88.5 |  |  | 56.8
7 | O=C(O)c1c2c(nc3ccc(F)cc13)-c1cc(F)c(-c3ccccc3F)cc1CC2 [Compound 17, 2,9-Difluoro-5,6-dihydro-3-(2-fluorophenyl)benz[c]acridine-7-carboxylic acid] | 91 |  | 82.5 |  |  | 59.8
8 | O=C(O)c1c2c(nc3ccc(F)cc13)-c1cc(F)c(-c3ccccc3)cc1CCC2 [Compound 28, 2,10-Difluoro-6,7-dihydro-3-phenyl-5H-benzo[6,7]cyclohepta[1,2-b]quinoline-8-carboxylic acid] | 93.6 |  | 90.1 | > 100 | > 100 | 73.6
9 | O=C(O)c1c2c(nc3ccc(F)cc13)-c1ccc(-c3ccccc3)cc1CCC2 [Compound 46, 6,7-Dihydro-10-fluoro-3-phenyl-5H-benzo[6,7]cyclohepta[1,2-b]quinoline-8-carboxylic acid] | 84.8 | 94.9 | 81.4 |  |  | 
10 | O=C(O)c1c2c(nc3ccc(F)cc13)-c1ccc(-c3ccccc3)cc1CC2 [Compound A1, 5,6-dihydro-9-fluoro-3-phenylbenz[c]acridine-7-carboxylic acid, reference compound] | 45.9 | 78.6 |  |  |  | 
